# In PubChem BioAssay (NCI):
# Values joined by “and” are separate entries in the source; they are usually repeats but may differ in a detail not shown here. Equal entries are not always repeated.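 48-hour exposure; five concentrations; linearly interpolated endpoints. GI50 = concentration required for 50% inhibition of growth. At the TGI there is no net growth.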
# Tests used:
# Test in all cases: inhibition of tumour cell growth, NCI panel, 48 h
# [1] = tested on: 786-0 renal
# [2] = tested on: CCRF-CEM leukemia
# [3] = tested on: COLO 205 colon
# [4] = tested on: HOP-92 NSCLC
# [5] = tested on: OVCAR-5 ovarian
# [6] = tested on: SW-620 colon
# [7] = tested on: UACC-62 melanoma
# [8] = tested on: MDA-MB-435
Structure (SMILES),GI50 [1],TGI [1],GI50 [2],TGI [2],GI50 [3],TGI [3],GI50 [4],TGI [4],GI50 [5],TGI [5],GI50 [6],TGI [6],GI50 [7],TGI [7],GI50 [8],TGI [8]
Cc1ccc(/C=C2\CCOC2=O)cc1,> 100 µM,> 100 µM,> 100 µM,> 100 µM,> 100 µM,> 100 µM,> 100 µM,> 100 µM,> 100 µM,> 100 µM,> 100 µM,> 100 µM,> 100 µM,> 100 µM,–,–
COc1ccc(/C=C(/C(=O)N2CCNCC2)c2cc(OC)c(OC)c(OC)c2)cc1O,33.1 µM,> 100 µM,3.23 µM,> 100 µM,3.24 µM,14 µM,23.5 µM,> 100 µM,6.21 µM,> 100 µM,3.69 µM,> 100 µM,3.15 µM,> 100 µM,0.418 µM,1.8 µM
Cc1ccccc1NC(=O)NC(CC(N)=O)c1ccc2c(c1)nc(-c1cccc(Oc3ccc(C(C)(C)C)cc3)c1)n2CCCN1CCCCC1C (stereo not drawn),4.19 µM,8.66 µM,3.03 µM,15.1 µM,1.82 µM,3.35 µM,1.94 µM,7.33 µM,5.21 µM,12 µM,1.84 µM,3.49 µM,1.71 µM,3.22 µM,1.72 µM,3.3 µM
COc1ccc(-n2c(N)c(C(=O)NCCN3CCOCC3)c3nc4ccccc4nc32)cc1OC,2.02 µM,79.2 µM,5.15 µM,> 100 µM,6.97 µM,> 100 µM,20.3 µM,> 100 µM,> 100 µM,> 100 µM,4.07 µM,> 100 µM,9.82 µM,> 100 µM,12.8 µM,> 100 µM
Cn1c(=O)c(F)c(Nc2ccc(I)cc2F)c2c(=O)n(C[C@@H](O)CO)cnc21,4.59 µM and 1.3 µM,21.4 µM and > 4.58 µM,–,52 µM and > 7.18 µM,< 0.01 µM and 0.00271 µM,–,< 0.01 µM,0.087 µM and 0.179 µM,< 0.01 µM and 0.0058 µM,35.3 µM and > 1.97 µM,< 0.01 µM and 0.00521 µM,> 64.1 µM,< 0.01 µM and 0.00264 µM,–,< 0.01 µM and 0.00642 µM,41.1 µM
O=C1NC(=NCc2ccccn2)S/C1=C\c1ccc2ncccc2c1,13.4 µM,> 25 µM,10.7 µM,> 25 µM,7.68 µM,> 25 µM,6.5 µM,> 21.8 µM,> 25 µM,> 25 µM,7.81 µM,> 25 µM,> 17.5 µM,> 25 µM,7.64 µM,> 21.9 µM
CSC(=S)N/N=C(\C)c1ccccn1,0.315 µM,12.5 µM,< 0.01 µM,1.68 µM,< 0.01 µM,11.9 µM,1.39 µM,26.1 µM,0.143 µM,22.2 µM,0.169 µM,17.3 µM,0.181 µM,0.955 µM,0.407 µM,16.6 µM
O=C(Nc1ccccc1Cl)c1ccc(NC2=C(Cl)C(=O)N(Cc3ccccc3)C2=O)cc1,24.8 µM,57.3 µM,> 100 µM,> 100 µM,51.3 µM,> 100 µM,–,–,> 100 µM,> 100 µM,25.4 µM,58.1 µM,19.5 µM,41.1 µM,48.4 µM,> 100 µM
Cc1ccc(Cl)cc1Nc1nc(C(F)(F)F)ccc1C(=O)Oc1ccc(Cl)cc1,14.3 µM,30.8 µM,7.68 µM,24.4 µM,9.81 µM,> 100 µM,1.92 µM,14.8 µM,10.5 µM,27.5 µM,17 µM,> 100 µM,15.8 µM,38.6 µM,16.8 µM,51.9 µM
CCCCCCCCSC1=CC(=O)C(OC)=C(OC)C1=O,7.86 µM,20.1 µM,–,–,4.17 µM,14.6 µM,–,–,4.25 µM,16.7 µM,1.71 µM,3.37 µM,3.5 µM,13.9 µM,1.88 µM,7.57 µM
O=C1c2cccc3cccc(c23)C(=O)N1CCCCOc1ccc(-c2nc3ccc(N4CCOCC4)cc3[nH]2)cc1,1.28 µM,2.68 µM,2.91 µM,> 28.2 µM,3.78 µM,13.7 µM,2 µM,4.37 µM,18.9 µM,34.9 µM,3.78 µM,12.3 µM,1.72 µM,3.2 µM,2.04 µM,4.54 µM
COc1cc(/C=C/C(=O)c2ccc(Nc3nc(Nc4ccc(F)cc4)nc(Nc4ccc(F)cc4)n3)cc2)cc(OC)c1OC,2.66 µM,12 µM,2.35 µM,> 100 µM,3.5 µM,> 100 µM,2.3 µM,42.6 µM,20.5 µM,> 100 µM,7.28 µM,> 100 µM,10.7 µM,41.4 µM,17.1 µM,> 100 µM
CC(=O)Nc1ccc(C(=O)N[C@@H]2C(=O)N3[C@@H]2SC(C)(C)[C@@H]3C(=O)O)cn1,–,> 100 µM,–,> 100 µM,–,> 100 µM,–,> 100 µM,–,> 100 µM,–,> 100 µM,–,> 100 µM,–,> 100 µM
COc1cc2c(/C=C3\C(=O)Nc4ccc(Br)cc43)c(Cl)n(C)c2cc1C,0.998 µM,3.94 µM,2.94 µM,23.2 µM,1.96 µM,5.43 µM,2.37 µM,17.9 µM,4.11 µM,15.9 µM,3.09 µM,15.4 µM,0.618 µM,12.9 µM,0.249 µM,0.802 µM
NCCOc1ccccn1,–,> 100 µM,–,> 100 µM,–,> 100 µM,–,> 100 µM,–,> 100 µM,–,> 100 µM,–,> 100 µM,–,> 100 µM
N#Cc1c2ccccc2c2nnc3cc(Cl)c(Cl)cc3n12,> 100 µM,> 100 µM,85.4 µM,> 100 µM,–,–,42 µM,> 100 µM,> 100 µM,> 100 µM,> 100 µM,> 100 µM,62.1 µM,> 100 µM,> 100 µM,> 100 µM

Structure (SMILES),GI50 [1],TGI [1],GI50 [2],TGI [2],GI50 [3],TGI [3],GI50 [4],TGI [4],GI50 [5],TGI [5],GI50 [6],TGI [6],GI50 [7],TGI [7],GI50 [8],TGI [8]
CC(C)[C@]12O[C@H]1[C@@H]1O[C@]13[C@]1(O[C@H]1C[C@H]1c4c(C(=O)c5ccccc5)oc(OC(=O)c5ccccc5)c4CC[C@@]13C)[C@@H]2O,0.0352 µM,5.22 µM,0.0429 µM,–,–,–,0.0649 µM,–,0.0401 µM,> 100 µM,0.0179 µM,3.89 µM,0.0134 µM,0.0333 µM,0.0151 µM,0.0366 µM
CN(C)/[N+]([O-])=N/Oc1cc(Nc2ccc(C(=O)O)cc2)c([N+](=O)[O-])cc1[N+](=O)[O-],22.2 µM,55.3 µM,–,–,28.2 µM,63.5 µM,–,–,38.5 µM,> 100 µM,45.4 µM,> 100 µM,17.9 µM,32.2 µM,19.8 µM,39.2 µM
O=[N+]([O-])c1ccc2[nH]cc(-c3c4ccccc4cc4[nH]c5ccc([N+](=O)[O-])cc5c34)c2c1,1.94 µM,4.09 µM,2.38 µM,6.71 µM,2.46 µM,7 µM,2.25 µM,5.89 µM,2.21 µM,5.94 µM,2.73 µM,8.84 µM,1.63 µM,3.47 µM,1.8 µM,4.89 µM
N#C/C(=C/N1CCN(C(=O)c2ccco2)C1=S)C(N)=O,18 µM,46.9 µM,> 100 µM,> 100 µM,24.9 µM,> 100 µM,25.5 µM,> 100 µM,–,–,22.1 µM,81.7 µM,14 µM,38.3 µM,14.6 µM,44.1 µM
CO/N=C1/c2cc(OC)ccc2-c2c(NOC)nc3ccccc3c21,17.7 µM,34.2 µM,70.1 µM,> 100 µM,41.3 µM,> 100 µM,16 µM,46.2 µM,22 µM,71.6 µM,60.1 µM,> 100 µM,27.5 µM,> 100 µM,> 100 µM,> 100 µM
Cc1ccc(/C=C(\C#N)n2nnc3cc(F)c(F)cc32)cc1,2.5 µM,11.9 µM,1.81 µM,> 100 µM,1.82 µM,3.76 µM,2.37 µM,8.32 µM,3.39 µM,> 100 µM,0.891 µM,11.2 µM,3.71 µM,17.5 µM,0.36 µM,17.2 µM
NS(=O)(=O)c1ccc(-n2nc(-c3ccc(Cl)cc3)cc2C2=CC(=O)C=CC2=O)cc1,19.8 µM,36 µM,3.57 µM,> 100 µM,–,–,28 µM,> 100 µM,19.5 µM,46.1 µM,19.8 µM,48.3 µM,14.2 µM,34.1 µM,22.9 µM,67.1 µM
C=C1C(=O)O[C@H]2[C@H]1CC/C(Cn1cc(CCC)nn1)=C\CC[C@@]1(C)O[C@@H]21,11.3 µM,25.5 µM,3 µM,9.71 µM,5.22 µM,17.1 µM,2.95 µM,7.13 µM,14.1 µM,29.5 µM,4.23 µM,14.4 µM,–,–,10.4 µM,24.9 µM
O=Cc1ccc(C(F)(F)F)cc1.[C-]#[O+].[C-]#[O+].[C-]#[O+].[Cr],13.1 µM,44.1 µM,9.87 µM,65.1 µM,27.4 µM,> 100 µM,24.8 µM,> 100 µM,53.9 µM,> 100 µM,30.9 µM,> 100 µM,13.3 µM,37 µM,14.3 µM,45.7 µM
O=C1NC(=NCCc2ccccc2Cl)S/C1=C\c1ccc2ncccc2c1,7.66 µM,> 25 µM,4.09 µM,> 25 µM,3.98 µM,> 25 µM,4 µM,22.2 µM,12.2 µM,> 25 µM,1.09 µM,> 25 µM,6.49 µM,> 25 µM,1.45 µM,9.81 µM
COc1ccc(C(=O)Nc2cccc(C3CC(=O)c4c(cc(OC)c(OC)c4OC)O3)c2)cc1 (stereo not drawn),0.795 µM,> 100 µM,0.426 µM,> 100 µM,2.39 µM,6.57 µM,1.66 µM,8.31 µM,4.98 µM,> 100 µM,0.691 µM,> 100 µM,0.557 µM,10.8 µM,0.276 µM,1.4 µM
Cc1c2c(nn1-c1ccc(S/N=C3\SCC(=O)CN3c3ccccc3)cc1)-c1ccccc1CC2,13.3 µM,> 50 µM,28.1 µM,> 50 µM,> 50 µM,> 50 µM,> 50 µM,> 50 µM,> 50 µM,> 50 µM,19.1 µM,> 50 µM,16 µM,> 50 µM,16.8 µM,> 50 µM
CCCNc1nc(-c2ccc(OC)cc2)nc2ccccc12,13.7 µM,33 µM,11.1 µM,68.3 µM,19.9 µM,> 100 µM,9.06 µM,29.3 µM,16.4 µM,43 µM,–,–,15.4 µM,35.5 µM,14.5 µM,29.2 µM
CCOC(=O)C(=Cc1ccccc1Br)C(=O)OCC,–,> 100 µM,–,> 100 µM,–,6.77 µM,–,7.57 µM,–,62.5 µM,–,–,–,4.79 µM,–,5.16 µM
O=C1c2cccnc2-c2nc(-c3ccc([N+](=O)[O-])cc3)cc3c2c1nc1ccccc13,10.4 µM,40.1 µM,–,–,5.54 µM,11.9 µM,24 µM,83.6 µM,12.5 µM,27.5 µM,3.21 µM,15.6 µM,5.43 µM,15.6 µM,1.69 µM,3.06 µM
COC(=O)c1c(-c2ccccc2)csc1NC(=O)c1c(-c2ccccc2)noc1C,1.34 µM,> 100 µM,1.77 µM,> 100 µM,1.21 µM,> 100 µM,–,–,–,> 100 µM,0.705 µM,> 100 µM,0.78 µM,> 100 µM,1.2 µM,> 100 µM
